Measurements as given in patent publication US20250041237A1, “HEMOGLOBIN-BASED NANOPARTICLES” (priority 2023, published 2025).

How the values were obtained:
[1] = test system: murine or human neutrophils; test: Transwell chemotaxis assay; type: cell-based; details: lipid radical scavenger added
From the text: Transwell chemotaxis assay. Cytoplasmic membranes of S. aureus Newman, MRSA, or MDRSA were isolated from lysostaphin-induced protoplasts as previously described. Briefly, the bacterial cells were washed and resuspended in buffered hypertonic sucrose, followed by treatment with lysostaphin to digest the cell walls. The resulting protoplasts were recovered and lysed in the dilute buffer to extract cytoplasmic membranes. To evaluate the chemotaxis ability of human or murine neutrophils towards S. aureus membranes, a 96-transwell plate with 3 μm pores was used (Corning, USA). The bottom wells were loaded with 200 μL of the bacterial cell membrane in chemotaxis buffer (49% HBSS, 0.5% human serum albumin, 4 mM L-glutamine, and 49% RPMI 1640), while the top wells contained 2×10^5 neutrophils in 75 μL chemotaxis buffer. The plate was incubated in the dark at 37° C. with 5% CO2 for 1.5 h. Neutrophils that had migrated into the bottom wells were lysed with elastase assay buffer to release the neutrophil elastase. The activity of elastase was measured using the chromogenic substrate, N-methoxysuccinyl-Ala-Ala-Pro-Val-p-nitroanilide, at a final concentration of 1 mM. The absorbance at 405 nm was measured using a GloMax-Multi microplate multimode reader (Promega, WI, USA) to determine the number of migrated neutrophils.

[2] = test system: MRSA; test: Mouse MRSA peritonitis model study; type: in vivo, ICR mice; details: treated i.v. 6 h after MRSA i.p. inoculation; monitored two weeks

Row | SMILES | Hb-Naf@RBCM-induced neutrophil recruitment [1] | survival [2] [%]
1 | Clc1cccc(CN=C2Nc3ccccc3NC23CCNCC3)c1 [Liproxstatin-1] | significantly inhibited | 
2 | CN(C/C=C/c1ccccc1)Cc1cccc2ccccc12 [naftifine] |  | 12.5
